Experimental data reported in ChEMBL document CHEMBL6087428, “Discovery of potent and selective factor XIa inhibitors incorporating triazole-based benzoic acid as novel P2' fragments: Molecular dynamics simulations and anticoagulant activity” (Eur J Med Chem, 2025).

Key:
[1] = molecular target: Coagulation factor XI (Homo sapiens, UniProt P03951); assay: Inhibition of human Factor XIa using Boc-Glu(OBzl)-Ala-Arg-AMC assessed as AMC release preincubated for 15 mins followed by substrate addition and measured after 10 mins by microplate fluorescence reader analysis
Sequence of Coagulation factor XI (P03951 19-387 limits assumed): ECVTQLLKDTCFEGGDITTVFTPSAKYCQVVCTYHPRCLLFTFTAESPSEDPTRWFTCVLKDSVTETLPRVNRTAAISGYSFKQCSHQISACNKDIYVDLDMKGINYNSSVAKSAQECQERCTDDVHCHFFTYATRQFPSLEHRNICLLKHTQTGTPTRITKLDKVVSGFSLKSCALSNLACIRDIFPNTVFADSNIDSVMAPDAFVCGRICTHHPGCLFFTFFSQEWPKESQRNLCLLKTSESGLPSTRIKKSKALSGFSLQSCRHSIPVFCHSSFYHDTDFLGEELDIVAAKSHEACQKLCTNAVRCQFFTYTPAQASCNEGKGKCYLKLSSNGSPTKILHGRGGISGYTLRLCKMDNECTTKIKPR
Sequence of Coagulation factor XI (P03951 388-625 limits assumed): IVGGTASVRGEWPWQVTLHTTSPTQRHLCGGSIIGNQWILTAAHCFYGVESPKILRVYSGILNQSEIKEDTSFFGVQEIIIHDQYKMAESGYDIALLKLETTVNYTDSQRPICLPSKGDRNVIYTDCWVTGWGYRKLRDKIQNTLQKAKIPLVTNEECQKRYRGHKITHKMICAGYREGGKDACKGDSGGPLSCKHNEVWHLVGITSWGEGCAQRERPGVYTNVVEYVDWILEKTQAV

[2] = molecular target: Plasma kallikrein (Homo sapiens, UniProt P03952); assay: Inhibition of human PKa using H-Pro-Phe-Arg-AMC as substrate incubated for 15 mins by fluorescence reader analysis
Sequence of Plasma kallikrein (P03952 20-390 limits assumed): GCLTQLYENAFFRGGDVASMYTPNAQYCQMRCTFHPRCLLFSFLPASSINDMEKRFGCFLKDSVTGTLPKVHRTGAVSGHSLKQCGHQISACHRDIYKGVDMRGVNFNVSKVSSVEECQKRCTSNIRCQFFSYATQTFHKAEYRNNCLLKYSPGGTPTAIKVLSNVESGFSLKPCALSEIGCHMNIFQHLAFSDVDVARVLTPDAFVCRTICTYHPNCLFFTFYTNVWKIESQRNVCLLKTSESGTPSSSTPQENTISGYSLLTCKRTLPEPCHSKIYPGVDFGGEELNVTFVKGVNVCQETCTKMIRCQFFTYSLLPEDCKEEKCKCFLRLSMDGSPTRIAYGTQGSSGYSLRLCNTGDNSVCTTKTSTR
Sequence of Plasma kallikrein (P03952 391-638 limits assumed): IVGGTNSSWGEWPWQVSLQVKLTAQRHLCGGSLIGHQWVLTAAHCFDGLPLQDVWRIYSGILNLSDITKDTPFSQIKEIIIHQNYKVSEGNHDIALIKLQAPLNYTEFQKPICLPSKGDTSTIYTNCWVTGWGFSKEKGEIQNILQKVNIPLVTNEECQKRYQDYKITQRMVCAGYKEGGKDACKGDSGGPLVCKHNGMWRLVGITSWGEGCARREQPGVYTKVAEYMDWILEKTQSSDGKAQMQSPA

[3] = tested on: Plasma; assay: Anticoagulant activity in citrated human pooled plasma assessed as prolongation of activated partial thromboplastin time incubated for 5 mins by aPTT reagent based semi-automated coagulometric analysis; assay type: functional
[4] = tested on: Plasma; assay: Anticoagulant activity in citrated human pooled plasma assessed as prolongation of prothrombin time incubated for 3 mins by PT reagent based semi-automated coagulometric analysis; assay type: functional; settings: 0.05 h
[5] = molecular target: Coagulation factor X (Homo sapiens, UniProt P00742); assay: Inhibition of human Factor Xa using Boc-Ile-Glu-Gly-Arg-AMC as substrate incubated for 15 mins by fluorescence reader analysis
Sequence of Coagulation factor X (P00742 41-179 limits assumed): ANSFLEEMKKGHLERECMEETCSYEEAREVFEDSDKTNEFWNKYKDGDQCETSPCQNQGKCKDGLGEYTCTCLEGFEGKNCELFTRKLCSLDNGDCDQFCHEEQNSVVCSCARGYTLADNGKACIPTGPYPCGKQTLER
Sequence of Coagulation factor X (P00742 235-488 limits assumed): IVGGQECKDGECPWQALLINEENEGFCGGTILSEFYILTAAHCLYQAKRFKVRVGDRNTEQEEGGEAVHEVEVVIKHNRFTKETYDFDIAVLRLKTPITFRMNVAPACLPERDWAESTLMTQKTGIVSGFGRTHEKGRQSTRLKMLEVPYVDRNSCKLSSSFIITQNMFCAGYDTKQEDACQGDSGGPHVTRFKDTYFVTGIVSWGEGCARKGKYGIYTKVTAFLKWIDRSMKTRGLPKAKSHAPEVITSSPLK

[6] = molecular target: Prothrombin (Homo sapiens, UniProt P00734); assay: Inhibition of human thrombin using Boc-Asp(OBzl)-Pro-Arg-AMC as substrate incubated for 15 mins by fluorescence reader analysis
[7] = molecular target: Trypsin (Homo sapiens, UniProt P07477+P07478+P35030); assay: Inhibition of human trypsin using Boc-Ile-Glu-Gly-Arg-AMC as substrate incubated for 15 mins by fluorescence reader analysis; assay type: protein assay
[8] = species: Homo sapiens; assay: Selectivity ratio of IC50 for human Factor Xa using Boc-Ile-Glu-Gly-Arg-AMC as substrate to IC50 for human Factor XIa using Boc-Glu(OBzl)-Ala-Arg-AMC
[9] = species: Homo sapiens; assay: Selectivity ratio of IC50 for human thrombin using Boc-Asp(OBzl)-Pro-Arg-AMC as substrate to IC50 for human Factor XIa using Boc-Glu(OBzl)-Ala-Arg-AMC
[10] = species: Homo sapiens; assay: Selectivity ratio of IC50 for human trypsin using Boc-Ile-Glu-Gly-Arg-AMC as substrate to IC50 for human Factor XIa using Boc-Glu(OBzl)-Ala-Arg-AMC

Compound | IC50 [1] | IC50 [2] | IC50 [5] | IC50 [6] | IC50 [7] | Ratio IC50 [8] | Ratio IC50 [9] | Ratio IC50 [10] | EC1.5 [3] | EC2 [4]
COc1cn(Cc2cn(-c3cn[nH]c3)nn2)c(=O)cc1-c1cc(Cl)ccc1-n1cc(Cl)nn1 | 186 nM | 2060 nM | – | – | – | – | – | – | – | –
CCC(c1cn(-c2cn[nH]c2)nn1)n1cnc(-c2cc(Cl)ccc2-n2cc(Cl)nn2)cc1=O (centres undefined) | 6550 nM | 23400 nM | – | – | – | – | – | – | – | –
COc1cn(C(Cc2ccccc2)c2cn(-c3cn[nH]c3)nn2)c(=O)cc1-c1cc(Cl)ccc1-n1cc(C(F)(F)F)nn1 (centres undefined) | 23.2 nM | 900 nM | – | – | – | – | – | – | 1.57 µM | >100 µM
COc1cn(Cc2cn(-c3cccnc3C(=O)O)nn2)c(=O)cc1-c1cc(Cl)ccc1-n1cc(Cl)nn1 | 379 nM | 6800 nM | – | – | – | – | – | – | – | –
COc1cn([C@@H](Cc2ccccc2)c2cn(-c3ccc(C(=O)O)cc3)nn2)c(=O)cc1-c1cc(Cl)ccc1-n1cc(C(F)(F)F)nn1 | 0.38 nM | 59.2 nM | 31600 nM | 51000 nM | 16500 nM | > 80000 | > 130000 | > 10000 | 0.55 µM | >100 µM
COc1cn(C(Cc2ccccc2)c2cn(-c3ccc(C(=O)O)cc3)nn2)c(=O)cc1-c1cc(Cl)ccc1-n1cc(Cl)nn1 (centres undefined) | 2.26 nM | 141 nM | 48200 nM | 42000 nM | 26100 nM | – | – | – | 1.41 µM | >100 µM
CCC(c1cn(-c2cnn(C)c2)nn1)n1cnc(-c2cc(Cl)ccc2-n2cc(Cl)nn2)cc1=O (centres undefined) | 14600 nM | 87200 nM | – | – | – | – | – | – | – | –
CCC(c1cn(-c2ccccc2C(=O)O)nn1)n1cc(OC)c(-c2cc(Cl)ccc2-n2cc(Cl)nn2)cc1=O (centres undefined) | 497 nM | 9800 nM | – | – | – | – | – | – | – | –
COc1cn(Cc2cn(-c3ccccc3C(=O)O)nn2)c(=O)cc1-c1cc(Cl)ccc1-n1cc(Cl)nn1 | 272 nM | 11600 nM | – | – | – | – | – | – | – | –
COC(=O)c1ccc(-n2cc(C(Cc3ccccc3)n3cc(OC)c(-c4cc(Cl)ccc4-n4cc(C(F)(F)F)nn4)cc3=O)nn2)cc1 (centres undefined) | 38.3 nM | 643 nM | – | – | – | – | – | – | – | –
COC(=O)c1ccc(-n2cc(C(Cc3ccccc3)n3cc(OC)c(-c4cc(Cl)ccc4-n4cc(Cl)nn4)cc3=O)nn2)cc1 (centres undefined) | 27 nM | 522 nM | – | – | – | – | – | – | – | –
COc1cn(Cc2cn(-c3cc(Br)cnc3C#N)nn2)c(=O)cc1-c1cc(Cl)ccc1-n1cc(Cl)nn1 | 2000 nM | 14200 nM | – | – | – | – | – | – | – | –
CCC(c1cn(-c2ccccc2)nn1)n1cc(OC)c(-c2cc(Cl)ccc2-n2cc(Cl)nn2)cc1=O (centres undefined) | 535 nM | 2590 nM | – | – | – | – | – | – | – | –
COc1cn([C@@H](Cc2ccccc2)c2cn(-c3ccc(C(=O)O)cc3)nn2)c(=O)cc1-c1cc(Cl)ccc1-n1cc(Cl)nn1 | 1.52 nM | 73.1 nM | 46800 nM | 24400 nM | 14100 nM | > 30000 | > 16000 | > 9000 | 0.75 µM | >100 µM
CCC(c1cn(-c2cccc(C(=O)O)c2)nn1)n1cc(OC)c(-c2cc(Cl)ccc2-n2cc(Cl)nn2)cc1=O (centres undefined) | 259 nM | 822 nM | – | – | – | – | – | – | – | –

The remaining compounds from weak to strong by IC50 [1], led by results:

IC50 [1] | IC50 [2] | IC50 [5] | IC50 [6] | IC50 [7] | Ratio IC50 [8] | Ratio IC50 [9] | Ratio IC50 [10] | Compound | EC1.5 [3] | EC2 [4]
1330 nM | 8130 nM | – | – | – | – | – | – | CCC(c1cn(-c2cnn(C(F)F)c2)nn1)n1cc(OC)c(-c2cc(Cl)ccc2-n2cc(Cl)nn2)cc1=O (centres undefined) | – | –
1090 nM | 15800 nM | – | – | – | – | – | – | COc1cn(Cc2cn(-c3ccc(Cl)nc3C#N)nn2)c(=O)cc1-c1cc(Cl)ccc1-n1cc(Cl)nn1 | – | –
1020 nM | 11100 nM | – | – | – | – | – | – | COc1cn(Cc2cn(-c3ccc(Cl)nc3C)nn2)c(=O)cc1-c1cc(Cl)ccc1-n1cc(Cl)nn1 | – | –
288 nM | 3740 nM | – | – | – | – | – | – | COc1cn(Cc2cn(-c3cnn(C)c3)nn2)c(=O)cc1-c1cc(Cl)ccc1-n1cc(Cl)nn1 | – | –
102 nM | 2750 nM | > 33000 nM | > 33000 nM | 88200 nM | – | – | – | COc1cn([C@H](Cc2ccccc2)c2cn(-c3ccc(C(=O)O)cc3)nn2)c(=O)cc1-c1cc(Cl)ccc1-n1cc(C(F)(F)F)nn1 | 26.9 µM | >100 µM
96.3 nM | 1870 nM | > 100000 nM | 46900 nM | > 100000 nM | – | – | – | COc1cn([C@H](Cc2ccccc2)c2cn(-c3ccc(C(=O)O)cc3)nn2)c(=O)cc1-c1cc(Cl)ccc1-n1cc(Cl)nn1 | 29 µM | >100 µM
38.7 nM | 832 nM | – | – | – | – | – | – | COc1cn(Cc2cn(-c3ccc(C(=O)O)cc3)nn2)c(=O)cc1-c1cc(Cl)ccc1-n1cc(Cl)nn1 | – | –
1.31 nM | 112 nM | 41200 nM | 53700 nM | 14200 nM | – | – | – | COc1cn(C(Cc2ccccc2)c2cn(-c3ccc(C(=O)O)cc3)nn2)c(=O)cc1-c1cc(Cl)ccc1-n1cc(C(F)(F)F)nn1 (centres undefined) | 0.81 µM | >100 µM
